Assay results reported in US20240368565A1, “COMPLEMENTATION-BASED TAGS AND REPORTERS FOR DUAL-MODALITY LABELING” (Promega Corporation, priority 2023, published 2024).

System: HeLa cells
Test: Flow cytometry fold response, reporter variants co-expressed with EGFP-HaloTag[3-19]-5×Gly/Ser-VS-HiBiT
Assay type: cell-based
Conditions: 100 nM ligand, compared to the less fluorogenic ligand JF646
Protocol: (§1) FIG. 95. […] Approximately 48 hours post-transfection, the cells were labeled with 100 nM JF646 HaloTag® ligand. Following a 1-hour incubation with the ligand, the cells were washed with DPBS media for 30 minutes (2× for 15 minutes each). Subsequently, the cells were lifted, and their fluorescence activity was measured using flow cytometry. […] The fold response of each assay condition was calculated as the ratio of mean fluorescence signal in the second quadrant (double positive) by the mean fluorescence signal in the third (JF646+) quadrant.
as §1, with “FIG. 96.” for “FIG. 95.”, “nM JF635” for “nM JF646”

C[Si]1(C)c2cc(N3CC(F)C3)ccc2C2(OC(=O)c3ccc(C(=O)NCCOCCOCCCCCCCl)cc32)c2ccc(N3CC(F)C3)cc21 [JF635]
Fluorescence fold response: fold responses are enhanced
